Test results published in patent publication US6475790B2, “Assay for screening agents that alter angiogenesis” (Biocure Limited, priority 1997, dated 2002).
Entries after “also recorded” stand apart in the source; their conditions may differ.

Test system: co-culture of Human Umbilical Vein Endothelial Cells (HUVEC) with Human Adult Dermal Fibroblasts
Assay: multicellular in vitro angiogenesis (tubule) assay, dual culture of HUVEC and fibroblasts
Format: cell-based
Settings: VEGF 10 ngml^-1 added at the start and at each medium change; 14 days; von Willebrand factor immunoassay
Excerpt: The assay system involves co-culture of Human Umbilical Vein Endothelial Cells (HUVEC) with Human Adult Dermal Fibroblasts. Under the conditions provided the cells form a series of anastomosed tubules.
The Human Umbilical Vein Endothelial Cells (HUVEC) are commercially available from suitable outlets and in this case are bought in cryopreserved form. Prior to employment in the tubule assay, the cells are routinely passed and cultured in any suitable commercially available Endothelial Growth Medium, EGM, containing 2% foetal calf serum. The HUVEC are used at passes 2 to 6 in the assay.
The Human Adult Dermal Fibroblasts are cultured from skin samples which may be obtained from local hospitals. […]
The tissue culture treated vessels to be used in the assay are equilibrated by pre-incubation with EGM, plus and minus treatments, for a period of 30 minutes at 37° C., 5% CO2 humidified atmosphere. […] The cells are resuspended in EGM and counted. […] The techniques and materials involved in culturing endothelial cells are well known to persons of skill in the art, and are readily available from standard texts. […]
Visualization of the tubules is accomplished most readily by an immunoassay that targets a cell marker on one or both of the cells being cultured. […]

With VEGF the tubule formation was “marked increase; also recorded: much enhanced”.
